The values that follow come from patent US10508111B2, “6-[5-amino-6-(2-ethoxyethoxy)-imidazo[4,5-B]pyridin-3-yl]-nicotinonitrile derivatives and their use as IRAK inhibitors” (GALAPAGOS NV, priority 2015, dated 2019).

Each structure is given as a SMILES string.

One test has as its target T1, CDK9 (Homo sapiens, UniProt P50750).
T1 construct: purchased Millipore 14-685
Nature of the test: Kinase selectivity profiling (focused panel), radioactive filter plate assay: CDK9. Type of test: biochemical. Conditions: PDKtide, 0.25 μM ATP, 60 min. As for the experimental part: The purpose of this assay is to determine the activity and selectivity of a compound of the invention on a selected range of human kinases which may result in undesirable side-effects when inhibited (Dy & Adjei 2013; Force & Kolaja 2011).
The IC50 value for off-target kinases is determined in radioactive filter plate assays. The principle of the assays consists in the measurement of incorporated ^33P into a peptide substrate upon phosphorylation by the kinase enzyme using [γ-^33P]ATP and ATP. Unincorporated ^33P is removed by loading the samples on a filter plate (using a harvester, PerkinElmer) and 6 subsequent washing steps. Incorporated ^33P in the peptide substrate is measured by a scintillation counter (Topcount, PerkinElmer) after addition of MicroScint™-20 (PerkinElmer, 6013621) to the filter plates.
5 μL of a water dilution series of test compound (starting from 20 μM or 6.6 μM highest concentration), from a 100% DMSO stock solution, 1/5 dilution, is added to the wells (final DMSO concentration of 1% in reaction assay). Enzyme and peptide substrate are used at optimized concentrations (cf. Table VI). The enzyme and substrate are diluted in assay buffer to a total volume of 11 μL. The reaction is started by addition of 9 μL of ATP+[γ-^33P]ATP, diluted in the same buffer as enzyme and substrate. The mixture is incubated at 30° C. The reaction is terminated by adding 25 μL of 150 mM phosphoric acid. Samples are transferred to filter plates and incorporated radioactivity is measured using a scintillation counter.
The incubation time, assay buffer composition, and concentrations of ATP, enzyme and substrate are reported in Table VI for example kinase off-target assays.
10 μM staurosporine (1% DMSO) is used as positive control (100% inhibition); vehicle (water+1% DMSO) as negative control (0% inhibition).

Test [1] relates to IL-1β triggered IL-6 release in SW1353 cells. Kind of test: SW1353 cellular selectivity assay, IL-1β trigger, IL-6 ELISA readout. The format is cell-based, human. Conditions: IL-1β trigger 1 ng/mL; for IC50: Homo sapiens; for IL-1β trigger IL-6 PIN at 20 μM: percent inhibition at 20 μM compound. The text has this: The aim of this assay is to evaluate the selectivity of compounds of the invention for the activated TLR/IRAK-4 pathway in an in vitro human cellular assay setting. SW1353 cells are from a chondrocytic cell line and are responsive to both the interleukin 1 (IL-1) and the TNFα cytokine triggers. Both cytokine triggers induce the expression of interleukin 6 (IL-6) and MMP13 by these cells. IL-6 and MMP13 releases are used as readouts in this assay and represent a measure for the level of inhibition of the TLR/IRAK-4 pathway by the tested compound.
SW1353 cells are cultured in DMEM supplemented with 10% FBS and 1% Penicillin/Streptomycin. Cells are incubated at 37° C. in a humidified atmosphere of 5% CO2 and subcultured twice a week. During subculturing, trypsin-EDTA is used to detach the cells, followed by a neutralization step with cell culture medium. After centrifugation (1,000 rpm during 5 min), the pellet is resuspended in cell culture medium and cells are counted using an automated cell counter (Invitrogen Countess™).
Cells are used at passage 16 and plated at a density of 15,000 cells per well in 120 μL cell culture medium in 96-well culture plates. Cells are allowed to attach during overnight incubation.
SW1353 cells are pre-incubated with test compound by addition of 15 μL of 10× concentrated compound solution for 2 h at 37° C. and 5% CO2. The compounds are tested at different concentrations and prepared by 3-fold serial dilutions from the 10 mM stock solution in DMSO followed by a 1/50 dilution step in cell culture medium. Final test concentrations in the assay start from 20 μM, with subsequent 3-fold serial dilutions with equal final DMSO concentrations of 0.2%. After the compound pre-incubation step, the SW1353 cells are triggered by addition of 15 μL of 10× concentrated IL-1f (Peprotech, 200-01B) or TNFα trigger (Peprotech, 300-01A) to the wells with final assay volume of 150 μL per well and final trigger concentration of 1 ng/mL and 10 ng/mL, respectively. Negative controls are adjusted with equal DMSO concentrations without trigger. The assay plates are then incubated in a humidified incubator at 37° C. and 5% CO2. Cell supernatants are harvested 24 h and 48 h later by transferring the cell medium into a V-bottom polypropylene 96-well plate and stored at −80° C. until ELISA readout.
The levels of secreted IL-6 in the cell supernatants are quantified in an enzyme-linked immunosorbent assay (ELISA). […] Luminescence of the converted substrate is measured with a Luminoskan™ Ascent luminometer.
All controls are measured within the linear range of the human IL-6 and MMP13 standard curve of the ELISA. […]
Background: An ELISA detects its analyte on a solid surface through an enzyme-linked reagent.

T1 sequence (P50750 whole entry): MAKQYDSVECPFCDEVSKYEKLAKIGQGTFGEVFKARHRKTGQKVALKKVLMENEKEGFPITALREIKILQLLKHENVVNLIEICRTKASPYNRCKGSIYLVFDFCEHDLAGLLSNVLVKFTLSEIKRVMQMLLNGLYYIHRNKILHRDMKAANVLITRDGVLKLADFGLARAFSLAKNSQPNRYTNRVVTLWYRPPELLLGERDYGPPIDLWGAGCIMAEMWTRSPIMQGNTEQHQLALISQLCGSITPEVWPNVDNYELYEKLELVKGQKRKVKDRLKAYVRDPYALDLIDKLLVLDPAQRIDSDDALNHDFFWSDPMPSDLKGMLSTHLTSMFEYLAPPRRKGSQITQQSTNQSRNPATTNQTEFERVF
T1 sequence (O60563 whole entry partner): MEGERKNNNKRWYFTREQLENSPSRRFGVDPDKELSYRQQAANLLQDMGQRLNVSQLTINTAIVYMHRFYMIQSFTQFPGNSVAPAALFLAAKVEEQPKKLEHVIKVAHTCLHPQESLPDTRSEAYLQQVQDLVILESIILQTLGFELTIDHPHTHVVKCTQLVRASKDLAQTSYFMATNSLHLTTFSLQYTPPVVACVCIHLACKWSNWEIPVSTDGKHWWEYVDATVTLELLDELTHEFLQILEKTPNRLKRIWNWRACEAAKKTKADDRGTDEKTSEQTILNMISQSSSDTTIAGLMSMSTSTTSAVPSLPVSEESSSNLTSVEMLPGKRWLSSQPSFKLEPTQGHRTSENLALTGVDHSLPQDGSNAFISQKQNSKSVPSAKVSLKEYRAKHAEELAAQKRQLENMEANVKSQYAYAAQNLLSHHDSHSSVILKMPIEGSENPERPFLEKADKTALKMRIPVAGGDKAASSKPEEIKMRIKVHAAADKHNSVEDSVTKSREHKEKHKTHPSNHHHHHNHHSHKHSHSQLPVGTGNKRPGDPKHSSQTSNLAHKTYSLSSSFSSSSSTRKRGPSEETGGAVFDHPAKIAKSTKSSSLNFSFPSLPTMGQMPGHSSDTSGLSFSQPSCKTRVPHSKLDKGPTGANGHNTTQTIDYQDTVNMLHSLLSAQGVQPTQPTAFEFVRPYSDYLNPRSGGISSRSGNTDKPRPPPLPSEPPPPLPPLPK

For the molecule `N#Cc1ccc(-n2cnc3cc(OCCOCCO)c(NC4CCOCC4)nc32)nc1` [Compound 1, 6-[6-[2-(2-hydroxy-ethoxy)-ethoxy]-5-(tetrahydro-pyran-4-ylamino)-imidazo[4,5-b]pyridin-3-yl]-nicotinonitrile], the IC50 on CDK9 was above 1330 nM. Also, in test [1], the IC50 stood at 54 nM and the “IL-1β trigger IL-6 PIN at 20 μM” value was “[89%]”.

For `C[C@]1(O)CC[C@@H](Nc2nc3c(cc2OCCOCCO)ncn3-c2ccc(C#N)cn2)CC1` [Compound 12, 6-[6-[2-(2-hydroxyethoxy)ethoxy]-5-[((cis-1,4)-4-hydroxy-4-methylcyclohexyl)amino]imidazo[4,5-b]pyridin-3-yl]pyridine-3-carbonitrile], the IC50 at CDK9 was found to be 1150 nM. Also, in test [1], inhibition was half-maximal at 40 nM (IC50) and the “IL-1β trigger IL-6 PIN at 20 μM” value was “[80%]”.

One may read the IC50 as the concentration that gives 50% inhibition.
